From ChEMBL document CHEMBL1614629, “Extrapolation of human pharmacokinetic parameters from rat, dog, and monkey data: Molecular properties associated with extrapolative success or failure” (J Pharm Sci, 2005)

Experiments:
[1] = Volume of distribution at steady state in dog after iv administration; format: ADME, organism-based, Canis lupus familiaris; conditions: in vivo, read-out: Vdss
[2] = Volume of distribution at steady state in monkey after iv administration; format: ADME, organism-based; conditions: macaca, in vivo, read-out: Vdss
[3] = Volume of distribution at steady state in rat after iv administration; format: ADME, organism-based; conditions: in vivo
[4] = Volume of distribution at steady state in human after iv administration; format: ADME, organism-based; conditions: in vivo; for Vd: read-out: Vdss
[5] = Clearance in rat after iv administration; format: ADME, organism-based; conditions: in vivo
[6] = Clearance in dog after iv administration; format: ADME, organism-based, Canis lupus familiaris; conditions: in vivo
[7] = Clearance in monkey after iv administration; format: ADME, organism-based; conditions: macaca, in vivo
[8] = Clearance in human after iv administration; format: ADME, organism-based; conditions: in vivo

Structure (SMILES)	Vd [1]	Vd [2]	Vdss [3]	Vd [4]	clearance [5]	clearance [6]	clearance [7]	clearance [8]	Vdss [4]
COC(=O)C1=C(C)NC(C)=C(C(=O)OCCN(C)Cc2ccccc2)C1c1cccc([N+](=O)[O-])c1 (centres undefined) [NICARDIPINE]	1.3 L/kg	1.9 L/kg	1.3 L/kg	0.64 L/kg	–	–	–	–	–
CC1CCCC(C)N1CCCC(O)(c1ccccc1)c1ccccn1 (centres undefined) [PIRMENOL]	3.3 L/kg	1.4 L/kg	12 L/kg	1.3 L/kg	23 mL/min/kg	6 mL/min/kg	5 mL/min/kg	2.5 mL/min/kg	–
CC[C@H]1OC(=O)[C@H](C)[C@@H](O[C@H]2C[C@@](C)(OC)[C@@H](O)[C@H](C)O2)[C@H](C)[C@@H](O[C@@H]2O[C@H](C)C[C@H](N(C)C)[C@H]2O)[C@](C)(O)C[C@@H](C)C(=O)[C@H](C)[C@@H](O)[C@]1(C)O [ERYTHROMYCIN]	2.7 L/kg	0.93 L/kg	9.3 L/kg	0.89 L/kg	73 mL/min/kg	21 mL/min/kg	14 mL/min/kg	7 mL/min/kg	–
CN(C)CCCC1(c2ccc(F)cc2)OCc2cc(C#N)ccc21 (centres undefined) [CITALOPRAM]	10 L/kg	10 L/kg	21 L/kg	14 L/kg	82 mL/min/kg	14 mL/min/kg	39 mL/min/kg	5 mL/min/kg	–
O=[N+]([O-])O[C@H]1CO[C@H]2[C@@H]1OC[C@H]2O[N+](=O)[O-] [ISOSORBIDE DINITRATE]	3 L/kg	1.7 L/kg	4.9 L/kg	–	118 mL/min/kg	180 mL/min/kg	59 mL/min/kg	3.6 mL/min/kg	0.05 L/kg
Cc1cn([C@H]2C[C@H](N=[N+]=[N-])[C@@H](CO)O2)c(=O)[nH]c1=O [ZIDOVUDINE]	1 L/kg	1 L/kg	–	–	46 mL/min/kg	14 mL/min/kg	15 mL/min/kg	24 mL/min/kg	–
Cc1nc(=O)c(C#N)c(NCc2cccnc2)[nH]1 [PELRINONE]	1.2 L/kg	0.85 L/kg	3.3 L/kg	0.35 L/kg	28 mL/min/kg	11 mL/min/kg	13 mL/min/kg	4 mL/min/kg	–
O=P(O)(O)C(Sc1ccc(Cl)cc1)P(=O)(O)O [TILUDRONIC ACID]	3 L/kg	7 L/kg	15 L/kg	1 L/kg	3.3 mL/min/kg	0.5 mL/min/kg	0.83 mL/min/kg	0.3 mL/min/kg	–
COCCc1ccc(OCC(O)CNC(C)C)cc1 (centres undefined) [METOPROLOL]	4.5 L/kg	3 L/kg	7 L/kg	–	185 mL/min/kg	23 mL/min/kg	30 mL/min/kg	15 mL/min/kg	–
CC1=NC(=O)C(CCN(C(C)C)C(C)C)(c2ccccc2)C2CCCCN12 (centres undefined) [ACTISOMIDE]	1.1 L/kg	1.6 L/kg	1.1 L/kg	0.58 L/kg	9.8 mL/min/kg	9 mL/min/kg	16.4 mL/min/kg	6.8 mL/min/kg	–
CO/N=C(\C(=O)N[C@@H]1C(=O)N2C(C(=O)O)=CCS[C@H]12)c1csc(N)n1 [CEFTIZOXIME]	0.1 L/kg	0.12 L/kg	0.18 L/kg	0.23 L/kg	19 mL/min/kg	3.3 mL/min/kg	5.9 mL/min/kg	1.8 mL/min/kg	–
NC(=O)c1csc([C@@H]2O[C@H](CO)[C@@H](O)[C@H]2O)n1 [TIAZOFURIN]	0.9 L/kg	2 L/kg	2.5 L/kg	0.9 L/kg	–	–	–	–	–
CN1CCC[C@H]1c1cccnc1 [NICOTINE]	3.3 L/kg	1.5 L/kg	4.7 L/kg	–	66 mL/min/kg	42 mL/min/kg	14 mL/min/kg	19 mL/min/kg	–
CC(C)(C)S(=O)(=O)C[C@@H](Cc1ccccc1)C(=O)N[C@@H](Cc1cnc[nH]1)C(=O)N[C@@H](CC1CCCCC1)[C@@H](O)[C@@H](O)C1CC1	1.5 L/kg	1.7 L/kg	4.4 L/kg	0.84 L/kg	–	25 mL/min/kg	20 mL/min/kg	10 mL/min/kg	–
Cn1cc(/C=C2/C(=O)N3C(C(=O)O)=CS[C@H]23)nn1	0.32 L/kg	0.27 L/kg	1.3 L/kg	0.28 L/kg	–	–	–	–	–
Cn1c(=O)c2c(ncn2C)n(C)c1=O [CAFFEINE]	0.76 L/kg	0.83 L/kg	0.92 L/kg	0.73 L/kg	–	2.1 mL/min/kg	3.1 mL/min/kg	2 mL/min/kg	–
CO[C@@]1(NC(=O)CSC(F)F)C(=O)N2C(C(=O)O)=C(CSc3nnnn3CCO)CO[C@@H]21 [FLOMOXEF]	0.32 L/kg	0.3 L/kg	0.23 L/kg	0.52 L/kg	–	–	–	–	–
C[C@@H](O)[C@H]1C(=O)N2C(C(=O)O)=C(SCCOC(N)=O)S[C@H]12 [Sch-34343]	0.22 L/kg	0.17 L/kg	0.17 L/kg	0.34 L/kg	–	–	–	–	–
N=C(N)c1ccc(C(=O)N[C@@H](Cc2ccc(O)cc2)C(=O)N2CCC(OCC(=O)O)CC2)cc1 [LAMIFIBAN]	0.75 L/kg	0.29 L/kg	0.24 L/kg	0.29 L/kg	–	–	–	–	–
CC(C)n1c(/C=C/C(O)CC(O)CC(=O)O)c(-c2ccc(F)cc2)c2ccccc21 (centres undefined) [FLUVASTATIN]	0.7 L/kg	3.7 L/kg	1 L/kg	0.42 L/kg	–	–	–	–	–
COC(=O)[C@H]1[C@@H](OC(=O)c2ccccc2)C[C@@H]2CC[C@H]1N2C [COCAINE]	3.8 L/kg	7.4 L/kg	16 L/kg	–	260 mL/min/kg	102 mL/min/kg	64 mL/min/kg	32 mL/min/kg	–
CN(Cc1cnc2nc(N)nc(N)c2n1)c1ccc(C(=O)N[C@@H](CCC(=O)O)C(=O)O)cc1 [METHOTREXATE]	–	1.2 L/kg	0.4 L/kg	0.67 L/kg	12 mL/min/kg	1.2 mL/min/kg	8 mL/min/kg	2.5 mL/min/kg	–
N=C(N)N1CCC[C@@H](CNC(=O)C[C@H](NS(=O)(=O)c2ccc3ccccc3c2)C(=O)N(CC(=O)O)C2CC2)C1 [NAPSAGATRAN ANHYDROUS]	0.69 L/kg	0.26 L/kg	0.62 L/kg	0.32 L/kg	–	–	–	–	–
CC(C)NCC(O)COc1cccc2ccccc12 (centres undefined) [PROPRANOLOL]	1.7 L/kg	0.6 L/kg	5.3 L/kg	3.6 L/kg	–	–	14 mL/min/kg	15 mL/min/kg	–
CC1(C)O[C@@H]2C[C@H]3[C@@H]4C[C@H](F)C5=CC(=O)C=C[C@]5(C)[C@H]4[C@@H](O)C[C@]3(C)[C@]2(C(=O)CO)O1 [FLUNISOLIDE]	3.7 L/kg	4 L/kg	3 L/kg	–	8.8 mL/min/kg	12.9 mL/min/kg	19 mL/min/kg	12 mL/min/kg	–
CN1C(C(=O)Nc2nccs2)=C(O)c2ccccc2S1(=O)=O [SUDOXICAM]	0.2 L/kg	0.2 L/kg	0.2 L/kg	0.2 L/kg	–	–	–	–	–
C[C@]12C=CC(=O)C=C1CC[C@@H]1[C@@H]2C(=O)C[C@@]2(C)[C@H]1CC[C@]2(O)C(=O)CO [PREDNISONE]	2.1 L/kg	1.6 L/kg	1.4 L/kg	–	163 mL/min/kg	27 mL/min/kg	13 mL/min/kg	3.6 mL/min/kg	–
O=C(c1ccccc1)c1ccc2n1CCC2C(=O)O (centres undefined) [KETOROLAC]	0.33 L/kg	0.09 L/kg	0.56 L/kg	–	3.6 mL/min/kg	1.3 mL/min/kg	0.6 mL/min/kg	–	–
